Measurements as given in the NIST ThermoML archive (doi:10.1016/j.tca.2012.03.028).

Tests used:
[1] = Molar enthalpy of transition or fusion; settings: Crystal; Differential scanning calorimeter
[2] = Crystal; Differential scanning calorimeter

Compound	Molar enthalpy of transition or fusion [1]	Normal melting temperature [2]
O=C(C(=O)c1ccccc1)c1ccccc1 [1,2-diphenylethanedione]	5.57 kcal/mol	95 °C
O=C(O)C(c1ccccc1)c1ccccc1 [2,2-diphenylethanoic acid]	7.45 kcal/mol	147.2 °C
CC(=O)Nc1ccccc1 [N-phenylethanamide]	5.22 kcal/mol	114.4 °C
O=C(O)c1ccccc1 [benzoic acid]	4.3 kcal/mol	122.4 °C
c1ccc(-c2ccccc2)cc1 [biphenyl]	4.42 kcal/mol	69.0 °C
c1ccc2ccccc2c1 [naphthalene]	4.5 kcal/mol	80.2 °C
O=C(Oc1ccccc1)c1ccccc1O [phenyl salicylate]	4.54 kcal/mol	41.8 °C
